The values that follow come from ChEMBL document CHEMBL4513135, “CO-ADD screening of IQOG CSIS (Spain) compounds”.

Molecules are shown by their SMILES. ≈ marks a conversion by molar mass, not a printed value.

One test has as its system Klebsiella pneumoniae. In words: microbe, parasite or virus in culture. The settings on record: ATCC 700603, 18 h, ASSAY_TEST Inhibition of Bacterial Growth, detection method Absorption (OD600), MEDIA CAMHB, plate type 384well, NBS, CORNING #3640.
The test system of the next test is Escherichia coli. In words: microbe, parasite or virus in culture. The settings on record: ATCC 25922, 18 h, ASSAY_TEST Inhibition of Bacterial Growth, detection method Absorption (OD600), MEDIA CAMHB, plate type 384well, NBS, CORNING #3640.
A further test concerns HEK293. Nature of the test: cells. It is filed as functional. The settings on record: Homo sapiens, ATCC CRL1573, HEK293; ASSAY_TEST Inhibition of Cell Viability; detection method Resazurin; Fluorescence (ex560/em590); MEDIA DMEM with 10% FBS; plate type 384well; TC; CORNING #3712; time 18 hr. For orientation: The colour change of resazurin is a common sign of viable cells or microbes.

In another test the test system is Pseudomonas aeruginosa. In words: microbe, parasite or virus in culture. To be noted: ATCC 27853, 18 h, ASSAY_TEST Inhibition of Bacterial Growth, detection method Absorption (OD600), MEDIA CAMHB, plate type 384well, NBS, CORNING #3640.
For the next test, the system named is Acinetobacter baumannii. In words: microbe, parasite or virus in culture. The settings on record: ATCC 19606, 18 h, ASSAY_TEST Inhibition of Bacterial Growth, detection method Absorption (OD600), MEDIA CAMHB, plate type 384well, NBS, CORNING #3640.
The next test has as its system Candida albicans. In words: microbe, parasite or virus in culture. The settings on record: ATCC 90028, ASSAY_TEST Inhibition of Fungal Growth, detection method Absorption (OD530), plate type 384well, NBS, CORNING #3640.
The next test concerns Staphylococcus aureus. In words: microbe, parasite or virus in culture. The settings on record: ATCC 43300, 18 h, ASSAY_TEST Inhibition of Bacterial Growth, detection method Absorption (OD600), MEDIA CAMHB, plate type 384well, NBS, CORNING #3640.

Description for Acinetobacter baumannii: Antibacterial activity against Acinetobacter baumannii ATCC 19606 (CO-ADD:GN_034); MIC in CAMBH media using NBS plates, by OD600
Description for Candida albicans: Antifungal activity against Candida albicans ATCC 90028 (CO-ADD:FG_001); MIC in YNB media using NBS plates, by OD630
Description for Cryptococcus neoformans: Antifungal activity against Cryptococcus neoformans H99 ATCC 208821 (CO-ADD:FG_002); MIC in YNB media using NBS plates, by Resazurin OD(600-570)
Description for Escherichia coli: Antibacterial activity against Escherichia coli ATCC 25922 (CO-ADD:GN_001); MIC in CAMBH media using NBS plates, by OD(600)
Description for Klebsiella pneumoniae: Antibacterial activity against Klebsiella pneumoniae MDR ATCC 70063 (CO-ADD:GN_003); MIC in CAMBH media using NBS plates, by OD(600)
Description for Pseudomonas aeruginosa: Antibacterial activity against Pseudomonas aeruginosa ATCC 27853 (CO-ADD:GN_042); MIC in CAMBH media using NBS plates, by OD(600)
Description for Staphylococcus aureus: Antibacterial activity against Staphylococcus aureus MRSA ATCC 43300 (CO-ADD:GP_020); MIC in CAMBH media, using NBS plates, by OD(600)

With `OCc1ccc(O)c2ncccc12`, the MIC is more than 32 µg/mL in the test with Klebsiella pneumoniae; more than 32 µg/mL against Escherichia coli; 16 µg/mL (≈ 91.3 µM) against Cryptococcus neoformans; 32 µg/mL (≈ 183 µM) with Pseudomonas aeruginosa; more than 32 µg/mL against Acinetobacter baumannii; 16 µg/mL (≈ 91.3 µM) in the test with Candida albicans. Further, in the test on Staphylococcus aureus, the MIC is more than 32 µg/mL. Further, it took 17.3 µg/mL (≈ 98.8 µM) to reach half-maximal cytotoxicity in the test with HEK293 (CC50).
Consider `C=C=CCN(C)Cc1cc2cc(OCc3ccccc3)ccc2n1C.O=C(O)C(=O)O`, for which the MIC in the test on Klebsiella pneumoniae, in the test on Escherichia coli, in the test with Cryptococcus neoformans, against Pseudomonas aeruginosa, against Acinetobacter baumannii and in the test with Candida albicans was more than 32 µg/mL throughout. In addition, in the test with Staphylococcus aureus, the MIC was more than 32 µg/mL. For the same compound, the CC50 in the test on HEK293 amounted to 1.61 µg/mL.
As to `Brc1nc(Br)c(Br)[nH]1`, the MIC against Klebsiella pneumoniae, against Escherichia coli, with Cryptococcus neoformans, in the test on Pseudomonas aeruginosa, with Acinetobacter baumannii and against Candida albicans was more than 32 µg/mL throughout. In the test on Staphylococcus aureus, this compound returned an MIC of more than 32 µg/mL. The same compound returned a half-maximal cytotoxic concentration (CC50) with HEK293 of more than 32 µg/mL.
Regarding `Cc1ccc2nc(Cl)c(/C=N/Cc3ccccc3)cc2c1`, the MIC in the test on Klebsiella pneumoniae, in the test with Escherichia coli, in the test on Cryptococcus neoformans, in the test with Pseudomonas aeruginosa, in the test on Acinetobacter baumannii and in the test on Candida albicans was more than 32 µg/mL each time. In the test on Staphylococcus aureus, this compound registered an MIC of more than 32 µg/mL. Moreover, the 50% cytotoxic concentration (CC50) in the test with HEK293 was more than 32 µg/mL.
On to `C#CCN(C)Cc1cc2cc(OCCCCC3CCN(Cc4ccccc4)CC3)ccc2n1C.Cl`, for which the MIC against Klebsiella pneumoniae, in the test with Escherichia coli, in the test on Cryptococcus neoformans, against Pseudomonas aeruginosa, with Acinetobacter baumannii and against Candida albicans was more than 32 µg/mL each time. The compound further had an MIC in the test on Staphylococcus aureus of more than 32 µg/mL. In addition, the cytotoxic concentration (CC50) in the test with HEK293 was more than 32 µg/mL.
For the compound `O=C(CI)NCc1ccccc1`, the MIC against Klebsiella pneumoniae was more than 32 µg/mL; against Escherichia coli it was more than 32 µg/mL; against Cryptococcus neoformans, 16 µg/mL (≈ 58.2 µM); with Pseudomonas aeruginosa, more than 32 µg/mL; in the test on Acinetobacter baumannii, more than 32 µg/mL; against Candida albicans, more than 32 µg/mL. Also, in the test on Staphylococcus aureus, the MIC is more than 32 µg/mL. In the test on HEK293, this compound yielded a CC50 of 8.25 µg/mL (≈ 30 µM).
As to `C#CCN(C)c1nc(NCCCCC2CCN(Cc3ccccc3)CC2)c(C#N)c(-c2ccccc2)c1C#N`, the MIC in the test with Klebsiella pneumoniae is more than 32 µg/mL; with Escherichia coli, more than 32 µg/mL; in the test on Cryptococcus neoformans, 8 µg/mL (≈ 15.5 µM); with Pseudomonas aeruginosa, more than 32 µg/mL; in the test on Acinetobacter baumannii, more than 32 µg/mL; against Candida albicans, 32 µg/mL (≈ 61.9 µM). Further, the MIC in the test with Staphylococcus aureus is more than 32 µg/mL. Besides, half-maximal cytotoxicity with HEK293 (CC50) was put at 3.73 µg/mL (≈ 7.22 µM).
For the compound `N#C/C(=C\c1ccc([N+](=O)[O-])cc1)C(=O)c1ccccc1`, the MIC against Klebsiella pneumoniae is more than 32 µg/mL; with Escherichia coli, more than 32 µg/mL; against Cryptococcus neoformans, 32 µg/mL (≈ 115 µM); in the test on Pseudomonas aeruginosa it was more than 32 µg/mL; in the test on Acinetobacter baumannii it was more than 32 µg/mL; against Candida albicans it was more than 32 µg/mL. Further, the MIC in the test on Staphylococcus aureus is more than 32 µg/mL. This compound also registered a CC50 in the test with HEK293 of more than 32 µg/mL.
As for `Cc1ccc2nc(Cl)c(/C=N/O)cc2c1`, the MIC against Klebsiella pneumoniae, against Escherichia coli, in the test on Cryptococcus neoformans, against Pseudomonas aeruginosa, against Acinetobacter baumannii and in the test on Candida albicans was more than 32 µg/mL each time. Also, the MIC against Staphylococcus aureus is more than 32 µg/mL. The CC50 in the test on HEK293 was more than 32 µg/mL.
As for `Cc1ccc2nc(Cl)c(C=O)cc2c1`, the MIC against Klebsiella pneumoniae is more than 32 µg/mL; with Escherichia coli, more than 32 µg/mL; in the test with Cryptococcus neoformans, 32 µg/mL (≈ 156 µM); in the test on Pseudomonas aeruginosa, more than 32 µg/mL; in the test with Acinetobacter baumannii it was more than 32 µg/mL; in the test with Candida albicans, more than 32 µg/mL. Further, the MIC against Staphylococcus aureus was more than 32 µg/mL. In the test with HEK293, this compound had a CC50 of 24.1 µg/mL (≈ 117 µM).
For `Cl.ClCc1ccncc1`, the MIC was more than 32 µg/mL against Klebsiella pneumoniae; more than 32 µg/mL with Escherichia coli; more than 32 µg/mL in the test on Cryptococcus neoformans; more than 32 µg/mL in the test on Pseudomonas aeruginosa; more than 32 µg/mL against Acinetobacter baumannii; 32 µg/mL in the test on Candida albicans. Also, the MIC in the test with Staphylococcus aureus was more than 32 µg/mL. In the test on HEK293, the CC50 was more than 32 µg/mL.

A word on the CC50: it is the concentration at which the toxic effect on the cells reaches its halfway point.
